PubChem BioAssay AID248 (DTP/NCI, 2004)
Values joined by “and” are separate entries in the source; they are usually repeats but may differ in a detail not shown here. Identical values can stand only once. Inconclusive results and toxic doses are left out.

Tested on: L1210 leukemia ip in BDF1 mice, survival T/C
Experiment: NCI In Vivo Anticancer Drug Screen. Data for tumor model L1210 Leukemia (intraperitoneal) in B6D2F1 (BDF1) mice
Conditions: endpoint: mean survival time, higher = longer survival
Outline: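 In this screen, tumor-bearing mice given compound are compared to those given vehicle, and their survival values are reported as a treated-to-control quotient.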

[1] = dose: 100.0 mg/kg/injection, schedule: Q01DX001 (ip), vehicle: carboxymethylcellulose (CMC)
[2] = dose: 200.0 mg/kg/injection, schedule: Q01DX001 (ip), vehicle: carboxymethylcellulose (CMC)
[3] = dose: 100.0 mg/kg/injection, schedule: Q01DX009 (ip), vehicle: saline
[4] = dose: 100.0 mg/kg/injection, schedule: Q04DX003 (ip), vehicle: saline
[5] = dose: 200.0 mg/kg/injection, schedule: Q01DX009 (ip), vehicle: saline
[6] = dose: 200.0 mg/kg/injection, schedule: Q04DX003 (ip), vehicle: saline
[7] = dose: 400.0 mg/kg/injection, schedule: Q01DX001 (ip), vehicle: carboxymethylcellulose (CMC)
[8] = dose: 400.0 mg/kg/injection, schedule: Q01DX009 (ip), vehicle: saline
[9] = dose: 400.0 mg/kg/injection, schedule: Q04DX003 (ip), vehicle: saline
[10] = dose: 100.0 mg/kg/injection, schedule: Q01DX001 (ip), vehicle: saline
[11] = dose: 200.0 mg/kg/injection, schedule: Q01DX001 (ip), vehicle: saline
[12] = dose: 400.0 mg/kg/injection, schedule: Q01DX001 (ip), vehicle: saline
[13] = dose: 100.0 mg/kg/injection, schedule: Q04DX003 (ip), vehicle: Klucel (hydroxypropylcellulose) (HPC)
[14] = dose: 200.0 mg/kg/injection, schedule: Q04DX003 (ip), vehicle: Klucel (hydroxypropylcellulose) (HPC)
[15] = dose: 25.0 mg/kg/injection, schedule: Q01DX009 (ip), vehicle: saline
[16] = dose: 50.0 mg/kg/injection, schedule: Q01DX009 (ip), vehicle: saline
[17] = dose: 400.0 mg/kg/injection, schedule: Q04DX003 (ip), vehicle: Klucel (hydroxypropylcellulose) (HPC)

## C[N+]1(N[P+](=O)NN2CCCCC2)CCCCC1 (stereo unspecified)
[1]
  T/C: 98 % of control
[2]
  T/C: 104 % of control

## COc1ccc(C(=O)c2cc(OC)c(OC)c(OC)c2)cc1OC
dose: 50.0 mg/kg/injection, schedule: Q04DX003 (ip), vehicle: saline
  T/C: 98 % of control
[1]
  T/C: 102 % of control
[3]
  T/C: 108 % of control
[4]
  T/C: 100 % of control
[2]
  T/C: 103 % of control
[5]
  T/C: 112 % of control
[6]
  T/C: 104 % of control
[7]
  T/C: 103 % of control
[8]
  T/C: 101 % of control
[9]
  T/C: 96 % of control

## Cc1cc(C)c(-c2c(C)cc(C)cc2[N+](=O)[O-])c([N+](=O)[O-])c1
[4]
  T/C: 93 % of control
[6]
  T/C: 96 % of control
[9]
  T/C: 86 % of control

## O=NN(CCCl)C(=O)Nc1ccc2c(c1)-c1ccccc1C2
dose: 118.0 mg/kg/injection, schedule: Q01DX001 (ip), vehicle: carboxymethylcellulose (CMC)
  T/C: 121 % of control
dose: 118.0 mg/kg/injection, schedule: Q01DX009 (ip), vehicle: carboxymethylcellulose (CMC)
  T/C: 188 % of control and 196 % of control
dose: 177.0 mg/kg/injection, schedule: Q01DX009 (ip), vehicle: carboxymethylcellulose (CMC)
  T/C: 122 % of control
dose: 266.0 mg/kg/injection, schedule: Q01DX009 (ip), vehicle: carboxymethylcellulose (CMC)
  T/C: 88 % of control
[7]
  T/C: 159 % of control
dose: 400.0 mg/kg/injection, schedule: Q01DX009 (ip), vehicle: carboxymethylcellulose (CMC)
  T/C: 92 % of control and 113 % of control
dose: 600.0 mg/kg/injection, schedule: Q01DX001 (ip), vehicle: carboxymethylcellulose (CMC)
  T/C: 150 % of control

## CCCCCCCC(C)NCCCO (stereo unspecified)
dose: 75.0 mg/kg/injection, schedule: Q01DX001 (ip), vehicle: saline
  T/C: 90 % of control

## CCCCS(=O)(=O)CCCCCCl
[10]
  T/C: 105 % of control
[11]
  T/C: 104 % of control
[12]
  T/C: 104 % of control

## CSc1nn(C)c2cc(C)c3ccccc3[n+]12
dose: 5.0 mg/kg/injection, schedule: Q01DX001 (ip), vehicle: saline
  T/C: 108 % of control
dose: 10.0 mg/kg/injection, schedule: Q01DX001 (ip), vehicle: saline
  T/C: 106 % of control
dose: 20.0 mg/kg/injection, schedule: Q01DX001 (ip), vehicle: saline
  T/C: 103 % of control
dose: 40.0 mg/kg/injection, schedule: Q01DX001 (ip), vehicle: saline
  T/C: 100 % of control

## CCSC(SCC)C(SCC)C(O)C(O)C(O)CO (stereo unspecified)
[1]
  T/C: 106 % of control
[2]
  T/C: 112 % of control
[7]
  T/C: 114 % of control

## COc1ccc(P(=NS(=O)(=O)c2ccc(C)cc2)(c2ccc(OC)cc2)c2ccc(OC)cc2)cc1
[13]
  T/C: 91 % of control
[14]
  T/C: 96 % of control

## CCN1C(=O)CSC1=S
[10]
  T/C: 101 % of control
dose: 100.0 mg/kg/injection, schedule: Q04DX003 (ip), vehicle: other
  T/C: 92 % of control and 96 % of control
[11]
  T/C: 101 % of control
dose: 200.0 mg/kg/injection, schedule: Q04DX003 (ip), vehicle: other
  T/C: 110 % of control and 89 % of control
[12]
  T/C: 102 % of control
dose: 400.0 mg/kg/injection, schedule: Q04DX003 (ip), vehicle: other
  T/C: 96 % of control

## CCOC(=O)C(C#N)S(C)(=O)=O (stereo unspecified)
[10]
  T/C: 89 % of control
[11]
  T/C: 95 % of control

## CCCCSc1n[nH]c(=O)[nH]c1=S
[10]
  T/C: 91 % of control
[11]
  T/C: 96 % of control

## O=C1NC2(CCCCC2)C(=O)N1CCN(CCCl)CCCl
dose: 1.3 mg/kg/injection, schedule: Q01DX009 (ip), vehicle: saline
  T/C: 96 % of control
dose: 2.0 mg/kg/injection, schedule: Q01DX009 (ip), vehicle: saline
  T/C: 107 % of control
dose: 4.1 mg/kg/injection, schedule: Q01DX009 (ip), vehicle: saline
  T/C: 117 % of control
dose: 6.25 mg/kg/injection, schedule: Q01DX009 (ip), vehicle: saline
  T/C: 119 % of control
dose: 9.3 mg/kg/injection, schedule: Q01DX009 (ip), vehicle: saline
  T/C: 124 % of control
dose: 16.0 mg/kg/injection, schedule: Q04DX003 (ip), vehicle: saline
  T/C: 122 % of control
[15]
  T/C: 106 % of control

## O=[N+]([O-])c1cccc(NCn2c(=S)[nH]c3ccccc32)c1
dose: 100.0 mg/kg/injection, schedule: Q01DX009 (ip), vehicle: Klucel (hydroxypropylcellulose) (HPC)
  T/C: 102 % of control
dose: 200.0 mg/kg/injection, schedule: Q01DX009 (ip), vehicle: Klucel (hydroxypropylcellulose) (HPC)
  T/C: 106 % of control

## O=C(COCC(=O)N/N=C/c1ccc(Cl)c(Cl)c1)N/N=C/c1ccc(Cl)c(Cl)c1
dose: 6.25 mg/kg/injection, schedule: Q01DX009 (ip), vehicle: saline with Tween-80
  T/C: 92 % of control
dose: 12.5 mg/kg/injection, schedule: Q01DX009 (ip), vehicle: saline with Tween-80
  T/C: 90 % of control
dose: 25.0 mg/kg/injection, schedule: Q01DX009 (ip), vehicle: saline with Tween-80
  T/C: 89 % of control
dose: 200.0 mg/kg/injection, schedule: Q04DX003 (ip), vehicle: saline with Tween-80
  T/C: 86 % of control

## ClCC#Cc1ccccc1
dose: 12.0 mg/kg/injection, schedule: Q01DX009 (ip), vehicle: saline
  T/C: 100 % of control
[15]
  T/C: 100 % of control
[16]
  T/C: 101 % of control
[4]
  T/C: 103 % of control
[6]
  T/C: 92 % of control
[9]
  T/C: 91 % of control

## CCCCCCCCNCCOC(=O)c1ccc(N(CC)CC)cc1
dose: 75.0 mg/kg/injection, schedule: Q01DX001 (ip), vehicle: carboxymethylcellulose (CMC)
  T/C: 91 % of control
dose: 150.0 mg/kg/injection, schedule: Q01DX001 (ip), vehicle: carboxymethylcellulose (CMC)
  T/C: 97 % of control

## CC(C)([CH2][Sn]([CH2]C(C)(C)c1ccccc1)([CH2]C(C)(C)c1ccccc1)[CH2]C(C)(C)c1ccccc1)c1ccccc1
dose: 5.0 mg/kg/injection, schedule: Q01DX009 (sc), vehicle: olive oil, sesame oil, peanut oil
  T/C: 102 % of control
dose: 5.0 mg/kg/injection, schedule: Q04DX003 (sc), vehicle: olive oil, sesame oil, peanut oil
  T/C: 92 % of control
dose: 10.0 mg/kg/injection, schedule: Q01DX009 (sc), vehicle: olive oil, sesame oil, peanut oil
  T/C: 107 % of control
dose: 10.0 mg/kg/injection, schedule: Q04DX003 (sc), vehicle: olive oil, sesame oil, peanut oil
  T/C: 92 % of control
dose: 20.0 mg/kg/injection, schedule: Q01DX009 (sc), vehicle: olive oil, sesame oil, peanut oil
  T/C: 102 % of control
dose: 20.0 mg/kg/injection, schedule: Q04DX003 (sc), vehicle: olive oil, sesame oil, peanut oil
  T/C: 92 % of control

## NCCSS(=O)(=O)CCN
[3]
  T/C: 105 % of control
[4]
  T/C: 106 % of control
[5]
  T/C: 107 % of control
[6]
  T/C: 107 % of control
[8]
  T/C: 100 % of control
[9]
  T/C: 100 % of control

## CC(=O)Nc1cc(-c2ccccc2)c(NC(C)=O)c(-c2ccccc2)c1
[10]
  T/C: 90 % of control
[11]
  T/C: 90 % of control
[12]
  T/C: 94 % of control

## C(=C\c1ccccn1)/c1ccccc1
[13]
  T/C: 100 % of control
[14]
  T/C: 94 % of control
[17]
  T/C: 103 % of control

## Cc1ccc(C)c(CNc2cc(=O)[nH]c(=O)[nH]2)c1
dose: 100.0 mg/kg/injection, schedule: Q01DX001 (ip), vehicle: Klucel (hydroxypropylcellulose) (HPC)
  T/C: 97 % of control
dose: 200.0 mg/kg/injection, schedule: Q01DX001 (ip), vehicle: Klucel (hydroxypropylcellulose) (HPC)
  T/C: 101 % of control
dose: 400.0 mg/kg/injection, schedule: Q01DX001 (ip), vehicle: Klucel (hydroxypropylcellulose) (HPC)
  T/C: 97 % of control

## CCCCCCCCNC(C(=O)c1ccc(Cl)cc1)c1ccc(Cl)cc1 (stereo unspecified)
[16]
  T/C: 92 % of control
[3]
  T/C: 91 % of control
[4]
  T/C: 98 % of control
[5]
  T/C: 97 % of control
[6]
  T/C: 102 % of control
[9]
  T/C: 90 % of control

## CCN=C(c1ccc(NC(=O)c2ccc(C(=O)Nc3ccc(C(=NCC)N(CC)C(=O)NCC(=O)OCC)cc3)cc2)cc1)N(CC)C(=O)NCC(=O)OCC
dose: 3.12 mg/kg/injection, schedule: Q01DX015 (ip), vehicle: methylcellulose (MC)
  T/C: 109 % of control
dose: 12.5 mg/kg/injection, schedule: Q01DX015 (ip), vehicle: methylcellulose (MC)
  T/C: 155 % of control
dose: 25.0 mg/kg/injection, schedule: Q01DX015 (ip), vehicle: methylcellulose (MC)
  T/C: 101 % of control

## CO/[N+]([O-])=C\C(=O)N/C=C/C(=O)O
dose: 13.3 mg/kg/injection, schedule: Q01DX Z (ip), vehicle: carboxymethylcellulose (CMC)
  T/C: 93 % of control
dose: 20.0 mg/kg/injection, schedule: Q01DX Z (ip), vehicle: carboxymethylcellulose (CMC)
  T/C: 101 % of control

## CC1C=C2C(=O)C=C3OCOC34Oc3cc5c(cc3C(C1C)C24)OCO5 (stereo unspecified)
[13]
  T/C: 94 % of control
[14]
  T/C: 97 % of control
[17]
  T/C: 97 % of control
